Where two headings read alike, the source gives them in different places. Square brackets hold non-standard residues; d marks the D form. Peptide text beside a SMILES is read from it.
What was measured:
[1] = tested on: human skeletal muscle cells; assay: Glucose uptake in skeletal muscle cells; type: cell-based; details: compared with control (FIG. 5)
[2] = tested on: primary human hepatic stellate cells; assay: Anti-fibrotic effect in TGF-β stimulated primary hepatic stellate cells (ACTA2 staining); type: cell-based; details: 10 μM
Procedure: The procedure was performed as described above for the CY5 labelled peptide imaging in HSkMCs with a few minor modifications. Primary hepatic stellate cells were investigated as they are considered to be the most relevant profibrogenic cells operating in acute and chronic liver diseases. The stellate cells were seeded directly onto the glass coverslips at a density of 5,000 cells/mL. After starvation, the cells were treated with pep_1E99R5 (5 ng/mL) or Elafibranor (10 μM) for 6 hours. The cells were washed and subsequently treated with 5 ng/ml […] (Bio Techne, Minneapolis, MN, United States) for 24 hours to induce fibrosis. The cells were fixed and stained with ACTA2 antibody (Assay Genie, Dublin, Ireland), a marker of fibroblast activation.
The confocal images were analysed with custom Python scripts using the scikit-image library version 0.15. The cells and nuclei were segmented using a simple threshold computed using the mean value of the image. Using the Nuclei as a seed we separated the cells in the cell mask using watershed segmentation. Cell size was then quantified in pixels. [Stéfan van der Walt, Johannes L. Schönberger, Juan Nunez-Iglesias, Frangois Boulogne, Joshua D. Warner, Neil Yager, Emmanuelle Gouillart, Tony Yu and the scikit-image contributors. scikit-image: Image processing in Python. PeerJ 2:e453 (2014)

PK profile (half-life) = details: in vivo
[3] = in humans; cited from earlier work
lipoproteins = details: binding to lipoproteins; cited from earlier work
Human primary cells = assay: Cytotoxicity in primary human cell-based systems (SRB / alamarBlue); details: at the concentration tested
Procedure: Systems are derived from either single cell types or co-culture systems. Adherent cell types are cultured in 96 or 384-well plates until confluence, followed by the addition of PBMC (SAg and LPS systems). The BT system consists of CD19+ B cells co-cultured with PBMC and stimulated with a BCR activator and low levels of TCR stimulation. Test agents prepared in either DMSO (small molecules; final concentration s 0.1%) or PBS (biologics) are added at the indicated concentrations 1-hr before stimulation, and remain in culture for 24 h or as otherwise indicated (48 h, MyoF system; 72 h, BT system (soluble readouts); 168 h, BT system (secreted IgG)). […] Soluble factors from supernatants are quantified using either HTRF® detection, bead-based multiplex immunoassay or capture ELISA. Overt adverse effects of test agents on cell proliferation and viability (cytotoxicity) are detected by sulforhodamine B (SRB) staining, for adherent cells, and alamarBlue® reduction for cells in suspension. For proliferation assays, individual cell types are cultured at subconfluence and measured at time points optimized for each system (48 h: 3C and CASM3C systems; 72 h: BT and HDF3CGF systems; 96 h: SAg system). […]

C57BL/6 mice = assay: Acetaminophen (APAP)-induced acute liver injury mouse model, ALT/AST; type: in vivo; details: inferred from ALT/AST time course
Procedure: Animals for Acetaminophen (APAP)-induced Acute Liver Injury Mouse Model: All animal procedures were performed by Melior Discovery (Exton, PA, USA) in accordance with Institutional Animal Care and Use (IACUC) guidelines in an AAALAC-accredited facility. […] Studies were performed with 8-week-old male C57BL/6 mice obtained from the Charles River Laboratory and were randomly assigned to the treatment groups based on body mass. Mice were acclimated for 7 days and housed 4 per cage on a 12-hour light/dark cycle with ad libitum access to standard rodent chow and water.

## 1(clac)wKE(Me)EC1GK(Me)PLVk-OH (Ac-[dW]KEXCGKXLV[dK]-OH; thioether (positions not given here); not fully specified (residues 4, 8, bridges); printed as 1(clac)wKE(Me)EC1GK(Me)PLVk-OH) [SEQUENCE ID NO: 3]
[1]
  glucose uptake in human skeletal muscle cells in-vitro: significantly increases
Stability in-vivo
  stability in-vivo: enhanced stability

## CSc1ccc(C(=O)/C=C/c2cc(C)c(OC(C)(C)C(=O)O)c(C)c2)cc1 [Elafibranor]
[2]
  anti-fibrotic effect in stimulated stellate cells: anti-fibrotic effects

## CC(C)C[C@H](NC(=O)[C@@H]1CCCN1C(=O)[C@H](CCCCN)NC(=O)CNC(=O)[C@@H](C)NC(=O)[C@H](CCC(=O)O)NC(=O)[C@H](CC(=O)O)NC(=O)[C@@H](CCCCN)NC(=O)[C@H](N)Cc1c[nH]c2ccccc12)C(=O)N[C@@H](C(=O)N[C@H](CCCCN)C(=O)O)C(C)C [SEQ ID 2, {d}W{d}KDE{d}AGKPL{d}V{d}K] (H-[dW][dK]DE[dA]GKPL[dV][dK]-OH; N-terminus and C-terminus assumed)
PK profile (half-life)
  half-life: 1.55 h

## C[C@@H](O)[C@@H]1NC(=O)[C@H](CCCCN)NC(=O)[C@@H](Cc2c[nH]c3ccccc23)NC(=O)[C@H](Cc2ccccc2)NC(=O)[C@@H](NC(=O)[C@H](N)Cc2ccccc2)CSSC[C@@H](C(=O)N[C@H](CO)[C@@H](C)O)NC1=O [octreotide]
[3]
  half-life: about 100 min
lipoproteins
  fraction unbound: 0.65

## CC(C)C[C@H](NC(=O)[C@@H]1CCCN1C(=O)[C@H](CCCCN)NC(=O)CNC(=O)[C@H](C)NC(=O)[C@H](CCC(=O)O)NC(=O)[C@H](CC(=O)O)NC(=O)[C@H](CCCCN)NC(=O)[C@@H](N)Cc1c[nH]c2ccccc12)C(=O)N[C@H](C(=O)N[C@@H](CCCCN)C(=O)O)C(C)C [pep_260] (H-WKDEAGKPLVK-OH; N-terminus and C-terminus assumed)
Human primary cells
  cytotoxicity: not cytotoxic
C57BL/6 mice
  duration of potent functionality in mice: 2 h

## NC(=O)CC[C@@H]1NC(=O)[C@H](Cc2ccccc2)NC(=O)[C@H](Cc2ccc(O)cc2)NC(=O)[C@@H](N)CSSC[C@@H](C(=O)N2CCC[C@H]2C(=O)N[C@@H](CCCN=C(N)N)C(=O)NCC(N)=O)NC(=O)[C@H](CC(N)=O)NC1=O [vasopressin]
[3]
  half-life: 0.167 to 0.583 h

From patent publication US12398180B2, “Treatment of non-alcoholic fatty liver disease” (NURITAS LIMITED, priority 2019, dated 2025)
